Data taken from PMC12337661, “PIEZO1 mechanical insensitivity in generalized lymphatic dysplasia with the potential for pharmacological rescue” (iScience, 2025).

Experiments:
Experiment in all cases: Intracellular Ca2+ measurement (fura-2), T-REx-293 cells stably transfected
Format in all cases: cell-based
I2286T mPIEZO1 = biological target: T1, I2286T mPIEZO1 (Mus musculus, UniProt E2JF22, I2286T)
T1 construct: expressed in transfected cells
Experimental: (§1) T-REx-293 cell line was transfected with pcDNA4/TO-mPIEZO1 constructs using Lipofectamine 2000 (Invitrogen) as above and treated with 200 μg.mL^−1 zeocin (InvivoGen) to select for stably transfected cells. At least two strongly expressing clonal cell lines were established and tested for each variant. All cell lines were maintained in Dulbecco’s Modified Eagle’s medium (Invitrogen) supplemented with 10% heat-inactivated fetal calf serum (Sigma-Aldrich), penicillin (50 units.mL^−1) and streptomycin (0.5 mg.mL^−1) (Sigma-Aldrich) and grown at 37°C in a humidified 5% CO2 incubator.
(§2) For intracellular Ca^2+ assays, cells were plated at 80–90% confluence in 96-well plates 24 h prior to recordings (6–8 × 10^4 cells per well). […] Cells were washed with SBS and incubated at room temperature for 20 min prior to recordings. Equal volumes of 2x concentrated compounds were injected to test for acute channel activation. Pre-incubation with compounds occurred during the 20 min prior to recordings. To expose cell membranes to hypo-osmolality, an equal volume of hypotonic SBS (containing only 35 mM NaCl) was injected onto the cells. Measurements were made on a fluorescence plate reader (Flexstation III, Molecular Devices) at room temperature (21 ± 2°C). Fura-2 was excited at 340 nm and 380 nm and emitted light collected at 510 nm, with measurements shown as the change in fluorescence (F) ratio (ΔF340/380).
(§3) KC41 (Dooku1) was prepared as described.[28] All purchased chemicals and solvents were used without further purification unless otherwise stated. All compounds were at least 95% pure by 1H NMR. 1H Nuclear Magnetic Resonance spectra were recorded at 500 MHz using a Bruker DRX 500 instrument or at 400 MHz using a Bruker DPX 400. 1H spectra are referenced based on the residual proton in the solvent (e.g., the CHCl3, 0.01% in 99.99% CDCl3). Coupling constants (J) are reported to the nearest 0.1 Hz. 13C NMR spectra were recorded at 125 MHz on 500 MHz spectrometers or at 100 MHz on 400 MHz spectrometers. LC-MS was performed on a Bruker Daltronics running a gradient of increasing acetonitrile (5–95%) in H2O both containing 0.1% formic acid at 1 mL.min^−1, on a short path C18 reverse phase column, detecting compounds with both a diode array detector and a Bruker mass spectrum analyser. HRMS was performed on a Bruker Daltonics micrOTOF using positive electrospray ionisation (ES+). Automated column chromatograph was carried out using a Biotage Isolera Four, using either Sfär Silica D or KP-Silica cartridges. HPLC was performed on an Agilent 1290 Infinity Series equipped with a UV detector and Hyperprep C18 reverse phase column. Key to NMR abbreviations: s (singlet), br s (broad singlet) d (doublet), dd (doublet of doublets), ddd (doublet of doublets of doublets), t (triplet), dt (doublet of triples), q (quartet), m (multiplet), ap. t (apparent triplet). For experiments, Yoda1 and its analogues were prepared as 10 mM stock solutions in 100% dimethyl sulfoxide (DMSO) before serial dilution in DMSO and final dilution in aqueous solution. Cells were exposed to 0.1% DMSO for all concentrations of the compounds from 0 to 10 μM.

E824V mPIEZO1 = biological target: T2, E824V mPIEZO1 (Mus musculus, UniProt E2JF22, E824V); details: versus WT
T2 construct: expressed in transfected cells
Experimental: as §1, §2, §3

WT mPIEZO1 = biological target: T3, WT mPIEZO1 (Mus musculus, UniProt E2JF22); details: 1.5 min exposure
T3 construct: expressed in transfected cells
Experimental: as §1, §2, §3

G1994D mPIEZO1 = biological target: T4, G1994D mPIEZO1 (Mus musculus, UniProt E2JF22, G1994D); details: for Mean normalise fluorescence (Figure 5d): G1994D
T4 construct: expressed in transfected cells
Experimental: as §1, §2, §3

[1] = long (20 min) exposure, normalized to 3 μM Yoda1

T1 sequence (E2JF22 whole entry I2286T): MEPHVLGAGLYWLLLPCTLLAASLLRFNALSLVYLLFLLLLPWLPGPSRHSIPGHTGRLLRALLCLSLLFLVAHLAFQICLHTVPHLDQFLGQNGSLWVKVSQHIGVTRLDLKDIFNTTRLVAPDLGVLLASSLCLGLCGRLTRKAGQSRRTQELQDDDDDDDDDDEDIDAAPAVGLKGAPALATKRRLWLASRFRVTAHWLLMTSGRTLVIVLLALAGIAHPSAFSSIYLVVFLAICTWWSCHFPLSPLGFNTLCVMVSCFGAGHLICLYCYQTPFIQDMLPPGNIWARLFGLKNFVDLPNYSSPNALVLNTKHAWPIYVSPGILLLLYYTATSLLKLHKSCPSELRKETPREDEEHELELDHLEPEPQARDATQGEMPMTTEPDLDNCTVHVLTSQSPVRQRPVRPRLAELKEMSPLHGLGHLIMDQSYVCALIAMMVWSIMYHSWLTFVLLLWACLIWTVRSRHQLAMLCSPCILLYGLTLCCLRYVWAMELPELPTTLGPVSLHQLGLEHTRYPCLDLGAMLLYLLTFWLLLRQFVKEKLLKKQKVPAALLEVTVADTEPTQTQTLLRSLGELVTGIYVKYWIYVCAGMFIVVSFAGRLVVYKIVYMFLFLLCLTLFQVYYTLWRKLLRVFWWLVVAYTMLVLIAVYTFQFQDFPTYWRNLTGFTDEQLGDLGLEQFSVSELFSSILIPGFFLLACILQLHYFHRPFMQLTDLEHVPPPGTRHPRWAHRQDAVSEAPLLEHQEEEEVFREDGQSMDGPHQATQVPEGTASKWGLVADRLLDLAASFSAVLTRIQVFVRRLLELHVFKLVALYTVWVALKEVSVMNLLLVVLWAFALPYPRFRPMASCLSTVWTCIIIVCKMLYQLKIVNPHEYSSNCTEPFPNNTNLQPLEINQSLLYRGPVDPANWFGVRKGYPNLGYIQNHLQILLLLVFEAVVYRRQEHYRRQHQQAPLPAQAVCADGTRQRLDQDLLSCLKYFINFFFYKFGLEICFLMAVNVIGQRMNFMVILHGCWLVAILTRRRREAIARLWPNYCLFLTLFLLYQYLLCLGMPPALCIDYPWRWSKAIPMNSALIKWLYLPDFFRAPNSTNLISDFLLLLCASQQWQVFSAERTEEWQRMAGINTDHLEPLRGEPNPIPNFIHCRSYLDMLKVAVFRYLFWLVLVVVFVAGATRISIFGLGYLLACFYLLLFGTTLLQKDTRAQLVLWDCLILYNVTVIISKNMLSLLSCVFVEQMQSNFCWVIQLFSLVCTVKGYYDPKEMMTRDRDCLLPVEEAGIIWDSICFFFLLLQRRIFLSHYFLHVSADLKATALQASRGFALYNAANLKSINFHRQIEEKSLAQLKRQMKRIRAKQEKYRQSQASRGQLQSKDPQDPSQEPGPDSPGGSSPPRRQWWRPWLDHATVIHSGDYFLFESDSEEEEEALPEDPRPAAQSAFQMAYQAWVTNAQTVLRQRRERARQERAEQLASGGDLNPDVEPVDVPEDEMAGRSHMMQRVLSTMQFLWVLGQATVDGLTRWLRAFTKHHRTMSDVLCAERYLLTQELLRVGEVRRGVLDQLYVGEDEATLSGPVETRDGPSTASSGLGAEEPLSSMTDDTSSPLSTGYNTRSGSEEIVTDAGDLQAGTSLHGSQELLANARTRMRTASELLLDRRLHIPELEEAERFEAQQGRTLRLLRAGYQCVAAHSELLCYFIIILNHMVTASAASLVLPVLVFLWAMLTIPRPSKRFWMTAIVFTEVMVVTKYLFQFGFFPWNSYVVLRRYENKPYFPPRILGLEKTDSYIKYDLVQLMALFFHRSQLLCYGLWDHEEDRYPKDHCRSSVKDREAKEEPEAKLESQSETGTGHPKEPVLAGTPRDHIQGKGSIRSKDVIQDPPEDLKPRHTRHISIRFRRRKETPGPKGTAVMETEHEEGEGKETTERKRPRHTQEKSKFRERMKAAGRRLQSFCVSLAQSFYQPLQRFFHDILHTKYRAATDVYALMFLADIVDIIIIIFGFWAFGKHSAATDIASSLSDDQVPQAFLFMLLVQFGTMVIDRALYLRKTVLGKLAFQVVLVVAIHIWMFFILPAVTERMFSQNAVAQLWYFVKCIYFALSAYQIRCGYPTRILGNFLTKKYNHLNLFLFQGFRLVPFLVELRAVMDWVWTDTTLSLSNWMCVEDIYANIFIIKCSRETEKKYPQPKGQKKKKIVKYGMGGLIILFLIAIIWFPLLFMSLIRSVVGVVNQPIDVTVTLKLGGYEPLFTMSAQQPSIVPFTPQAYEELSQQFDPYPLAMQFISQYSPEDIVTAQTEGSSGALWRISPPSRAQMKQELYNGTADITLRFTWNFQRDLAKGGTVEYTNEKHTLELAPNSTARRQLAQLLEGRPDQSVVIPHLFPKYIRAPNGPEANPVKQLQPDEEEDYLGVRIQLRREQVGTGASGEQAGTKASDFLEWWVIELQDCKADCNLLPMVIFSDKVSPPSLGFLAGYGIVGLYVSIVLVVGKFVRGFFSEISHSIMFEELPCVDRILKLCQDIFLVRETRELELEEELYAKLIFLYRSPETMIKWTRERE
T4 sequence (E2JF22 whole entry G1994D): as the sequence (E2JF22 whole entry I2286T) above, with G1994D, T2286I counted along it
T3 sequence (E2JF22 whole entry): as the sequence (E2JF22 whole entry I2286T) above, with T2286I counted along it
T2 sequence (E2JF22 whole entry E824V): as the sequence (E2JF22 whole entry I2286T) above, with E824V, T2286I counted along it

Mean (ΔFratio) (I2286T mPIEZO1; 0.3 µM, time 0 s): 0.00284 | Mean (ΔFratio) (I2286T mPIEZO1; 0.3 µM, time 5 s): -0.01214 | Mean (ΔFratio) (I2286T mPIEZO1; 0.3 µM, time 10 s): -0.00475 | Mean (ΔFratio) (I2286T mPIEZO1; 0.3 µM, time 15 s): 0.0078 | Mean (ΔFratio) (I2286T mPIEZO1; 0.3 µM, time 20 s): 0.0053 | Mean (ΔFratio) (I2286T mPIEZO1; 0.3 µM, time 25 s): 9.46E-04 | Mean (ΔFratio) (I2286T mPIEZO1; 0.3 µM, time 30 s): -0.3226 | Mean (ΔFratio) (I2286T mPIEZO1; 0.3 µM, time 35 s): 0.06275 | Mean (ΔFratio) (I2286T mPIEZO1; 0.3 µM, time 40 s): 0.07886 | Mean (ΔFratio) (I2286T mPIEZO1; 0.3 µM, time 45 s): 0.1026 | Mean (ΔFratio) (I2286T mPIEZO1; 0.3 µM, time 50 s): 0.1196 | Mean (ΔFratio) (I2286T mPIEZO1; 0.3 µM, time 55 s): 0.1055 | Mean (ΔFratio) (I2286T mPIEZO1; 0.3 µM, time 60 s): 0.1268 | Mean (ΔFratio) (I2286T mPIEZO1; 0.3 µM, time 65 s): 0.1277 | Mean (ΔFratio) (I2286T mPIEZO1; 0.3 µM, time 70 s): 0.1132 | Mean (ΔFratio) (I2286T mPIEZO1; 0.3 µM, time 75 s): 0.108 | Mean (ΔFratio) (I2286T mPIEZO1; 0.3 µM, time 80 s): 0.1196 | Mean (ΔFratio) (I2286T mPIEZO1; 0.3 µM, time 85 s): 0.1097 | Mean (ΔFratio) (I2286T mPIEZO1; 0.3 µM, time 90 s): 0.1266 | Mean (ΔFratio) (I2286T mPIEZO1; 0.3 µM, time 95 s): 0.09696 | Mean (ΔFratio) (I2286T mPIEZO1; 0.3 µM, time 100 s): 0.1131 | Mean (ΔFratio) (I2286T mPIEZO1; 0.3 µM, time 105 s): 0.1125 | Mean (ΔFratio) (I2286T mPIEZO1; 0.3 µM, time 110 s): 0.1236 | Mean (ΔFratio) (I2286T mPIEZO1; 0.3 µM, time 115 s): 0.1032 | Mean (ΔFratio) (I2286T mPIEZO1; 0.3 µM, time 120 s): 0.1051 | Mean (ΔFratio) (I2286T mPIEZO1; 0.3 µM, time 125 s): 0.1128 | Mean (ΔFratio) (I2286T mPIEZO1; 0.3 µM, time 130 s): 0.1149 | Mean (ΔFratio) (I2286T mPIEZO1; 3 µM, time 0 s): 0.00514 | Mean (ΔFratio) (I2286T mPIEZO1; 3 µM, time 5 s): -0.00971 | Mean (ΔFratio) (I2286T mPIEZO1; 3 µM, time 10 s): -0.01128 | Mean (ΔFratio) (I2286T mPIEZO1; 3 µM, time 15 s): -0.00374 | Mean (ΔFratio) (I2286T mPIEZO1; 3 µM, time 20 s): 0.00352 | Mean (ΔFratio) (I2286T mPIEZO1; 3 µM, time 25 s): 0.01607 | Mean (ΔFratio) (I2286T mPIEZO1; 3 µM, time 30 s): -0.3514 | Mean (ΔFratio) (I2286T mPIEZO1; 3 µM, time 35 s): -7.87E-04 | Mean (ΔFratio) (I2286T mPIEZO1; 3 µM, time 40 s): 0.4454 | Mean (ΔFratio) (I2286T mPIEZO1; 3 µM, time 45 s): 0.684 | Mean (ΔFratio) (I2286T mPIEZO1; 3 µM, time 50 s): 0.8254 | Mean (ΔFratio) (I2286T mPIEZO1; 3 µM, time 55 s): 0.9146 | Mean (ΔFratio) (I2286T mPIEZO1; 3 µM, time 60 s): 1.017 | Mean (ΔFratio) (I2286T mPIEZO1; 3 µM, time 65 s): 0.992 | Mean (ΔFratio) (I2286T mPIEZO1; 3 µM, time 70 s): 1.046 | Mean (ΔFratio) (I2286T mPIEZO1; 3 µM, time 75 s): 1.071 | Mean (ΔFratio) (I2286T mPIEZO1; 3 µM, time 80 s): 1.067 | Mean (ΔFratio) (I2286T mPIEZO1; 3 µM, time 85 s): 1.06 | Mean (ΔFratio) (I2286T mPIEZO1; 3 µM, time 90 s): 1.0819 | Mean (ΔFratio) (I2286T mPIEZO1; 3 µM, time 95 s): 1.076 | Mean (ΔFratio) (I2286T mPIEZO1; 3 µM, time 100 s): 1.0617 | Mean (ΔFratio) (I2286T mPIEZO1; 3 µM, time 105 s): 1.0398 | Mean (ΔFratio) (I2286T mPIEZO1; 3 µM, time 110 s): 1.005 | Mean (ΔFratio) (I2286T mPIEZO1; 3 µM, time 115 s): 1.038 | Mean (ΔFratio) (I2286T mPIEZO1; 3 µM, time 120 s): 1.008 | Mean (ΔFratio) (I2286T mPIEZO1; 3 µM, time 125 s): 0.9978 | Mean (ΔFratio) (I2286T mPIEZO1; 3 µM, time 130 s): 0.9846 | Mean normalise fluorescence (I2286T mPIEZO1; 1.5 min exposure, 0.03 µM): -0.00469 | Mean normalise fluorescence (I2286T mPIEZO1; 1.5 min exposure, 0.1 µM): -0.00217 | Mean normalise fluorescence (I2286T mPIEZO1; 1.5 min exposure, 0.3 µM): 0.03506 | Mean normalise fluorescence (I2286T mPIEZO1; 1.5 min exposure, 1 µM): 0.1805 | Mean normalise fluorescence (I2286T mPIEZO1; 1.5 min exposure, 3 µM): 0.4613 | Mean normalise fluorescence (I2286T mPIEZO1; 1.5 min exposure, 5 µM): 0.7197 | Mean normalise fluorescence (I2286T mPIEZO1; 1.5 min exposure, 10 µM): 1 | Mean normalise fluorescence (I2286T mPIEZO1; 20 min exposure, normalized to 3 μM, 0.03 µM): 0.09646 | Mean normalise fluorescence (I2286T mPIEZO1; 20 min exposure, normalized to 3 μM, 0.1 µM): 0.04298 | Mean normalise fluorescence (I2286T mPIEZO1; 20 min exposure, normalized to 3 μM, 0.3 µM): 0.2627 | Mean normalise fluorescence (I2286T mPIEZO1; 20 min exposure, normalized to 3 μM, 1 µM): 0.9872 | Mean normalise fluorescence (I2286T mPIEZO1; 20 min exposure, normalized to 3 μM, 3 µM): 1 | Mean normalise fluorescence (I2286T mPIEZO1; 20 min exposure, normalized to 3 μM, 10 µM): 0.9221 | EC50 (I2286T mPIEZO1; [1]): 410 nM | Effect on mPIEZO1 channel function (I2286T mPIEZO1; versus WT): loss of MA: LOF; reduced Y1 potency | Effect on mPIEZO1 channel function (E824V mPIEZO1): reduced Y1 potency | Mean normalise fluorescence (WT mPIEZO1; 0.01 µM): 0.01111 | Mean normalise fluorescence (WT mPIEZO1; 0.03 µM): 0.04107 | Mean normalise fluorescence (WT mPIEZO1; 0.1 µM): 0.2255 | Mean normalise fluorescence (WT mPIEZO1; 0.3 µM): 0.6112 | Mean normalise fluorescence (WT mPIEZO1; 1 µM): 0.8879 | Mean normalise fluorescence (WT mPIEZO1; 3 µM): 0.9862 | Mean normalise fluorescence (WT mPIEZO1; 5 µM): 1.0356 | Mean normalise fluorescence (WT mPIEZO1; 10 µM): 1 | EC50 (WT mPIEZO1; fitted Hill equation): 240 nM | Mean normalise fluorescence (Figure 5d) (G1994D mPIEZO1; Yoda1 concentration 0.01 µM): 0.00218 | Mean normalise fluorescence (Figure 5d) (G1994D mPIEZO1; Yoda1 concentration 0.03 µM): 0.00674 | Mean normalise fluorescence (Figure 5d) (G1994D mPIEZO1; Yoda1 concentration 0.1 µM): 0.01862 | Mean normalise fluorescence (Figure 5d) (G1994D mPIEZO1; Yoda1 concentration 0.3 µM): 0.1159 | Mean normalise fluorescence (Figure 5d) (G1994D mPIEZO1; Yoda1 concentration 1 µM): 0.3636 | Mean normalise fluorescence (Figure 5d) (G1994D mPIEZO1; Yoda1 concentration 3 µM): 0.6853 | Mean normalise fluorescence (Figure 5d) (G1994D mPIEZO1; Yoda1 concentration 5 µM): 0.8762 | Mean normalise fluorescence (Figure 5d) (G1994D mPIEZO1; Yoda1 concentration 10 µM): 1 | EC50 (G1994D mPIEZO1; [1]): 310 nM
Structure (SMILES): Clc1cccc(Cl)c1CSc1nnc(-c2cnccn2)s1 [Yoda1]
Effect on mPIEZO1 channel function (G1994D mPIEZO1; versus WT): reduced MA: LOF; reduced inactivation: GOF; reduced Y1 potency
